The values below come from PMC10547880, “Synthesis and biological evaluation of novel 1,2,3-triazole hybrids of cabotegravir: identification of potent antitumor activity against lung cancer” (Frontiers in Pharmacology, 2023).

Holding throughout (type): cell-based, Human
The test system of series [1] is H460 cells. Nature of the series: Apoptosis assay, Annexin V-FITC/PI flow cytometry, H460. The conditions noted are these: H460, 2, 4 and 8 μM, 72 h. As to the method:
Cells with a density of 3 × 10^5 cells per well were seeded in 6-well plates. After overnight adhesion, cells were treated with different concentrations of compounds for 72 h. Cells were harvested and stained with Annexin V-FITC and propidium iodide. Apoptotic ratio was quantified using the flow cytometry (BD Biosciences) and analyzed using the FlowJo software v10. Values were expressed as Mean ± SD, p < 0.05 was considered statistically significant. Data were performed using Graph Prim 7.0.
Apoptosis is a programmed-controlled process of cell self-destruction, and increased cell apoptosis can lead to cell death ([Wang et al., 2023]). To explore the preliminary molecular mechanisms of the synthesized compounds action, the apoptotic activity of compound 5i was evaluated by comparing the percentage of apoptotic cells with untreated cells using flow cytometry after staining with Annexin V-FITC and PI ([Chen et al., 2022a]). This assay facilitates the detection of necrotic cells (Q1, AV-/PI+), late apoptotic cells (Q2, AV+/PI+), early apoptotic cells (Q3, AV+/PI-), and live cells (Q4, AV-/PI-). H460 and H1299 cells were treated with different doses of compound 5i for 72h, and cells were collected, stained, and analyzed. The proportion of early and late apoptotic cells was added and their ratio relative to the total cells was calculated.
A general note: In flow cytometry, cells or beads pass a laser one at a time.

Another series relates to H1299 cells. As to the kind of experiment: Plate clone formation assay, H1299. The conditions noted are these: H1299, 2-32 μM. As to the method:
Cells with the density of 500 cells per well were seeded in a 6-well plate. Different concentrations (0, 2 μM, 4 μM, 8 μM, 16 μM and 32 μM) of compounds were added to cells and maintained for a 72- hour duration. And cells were cultured until the monoclonal appeared. Afterward, cells were fixed with 4% paraformaldehyde and stained by Giemsa dye. The plate clone numbers were photographed and counted using a microscope. Values were expressed as Mean ± SEM, p < 0.05 was considered statistically significant. Data were performed using Graph Prim 7.0.
To assess the anti-proliferative effects of compound 5i, live/dead cell staining was performed using Calcein Acetoxymethyl Ester (Calcein-AM) and Propidium Iodide (PI) dyes ([Xie et al., 2023]). Calcein-AM highlights live cells through green fluorescence emission, while PI identifies dead cells with damaged membrane integrity, producing red fluorescence. H460 and H1299 cells were treated with different concentrations (0, 5, 10 and 20 μM) of compound 5i for 24 h. After 24 h treatment, cells were stained with Calcein-AM and PI, diluted in cultured medium, and incubated for an hour in dark. Then the fluorescence was detected and photographed using a fluorescent microscope. […] In addition, we also performed plate clone formation assay ([Xu et al., 2018]) to further investigate the anti-proliferation ability of compound 5i. […]

For another series, the system named is LO2 cells. Nature of the series: CCK8 cell viability, normal cell line LO2. To be noted: LO2 normal liver cells, 25 μM, 72 h. On the procedure:
Human lung cancer cell line H460 and H1299, human liver normal cell line LO2 were bought from ATCC. DMEM or RPMI 1640 was used as the cell culture medium with 10% FBS and 1% penicillin/streptomycin. Cells were maintained in an incubator with 37°C humidified atmosphere and 5% CO2.
Cell viability and IC50 values were determined using the CCK8 assay kit. Cells were seeded at a density of 5 × 10^3 cells per well in a 96-well plate. After overnight adhesion, 25 μM of compounds or vehicle control DMSO which all dissolved in the culture medium were added to cells and cultured for 48 h or 72 h. CCK8 reagent, dissolved in the medium, was then added to cells and incubated for 1 h. The absorbance at 450 nm was measured using a microplate spectrophotometer (Thermo). Cell viability was calculated, with the untreated group taken as 100%. For IC50 values determination, different concentrations (0, 0.4 μM, 2 μM, 10 μM, 20 μM, 50 μM) of compounds were added to cells for 72 h. Subsequent CCK8 measurement allowed the calculation of inhibition percentage based on cell viability. The IC50 values were computed by the prism statistical software. The CCK-8 assay was conducted three times and the repetitions in each time were at least three. All the values were expressed as Mean ± SD, p < 0.05 was considered statistically significant.
In order to assess the potential cytotoxicity of the synthesized compounds, we selected two types of human non-small-cell lung cancer cell line, H460 and H1299. Cell viability and cytotoxicity were evaluated using the CCK8 assay ([Xu et al., 2018]). The cells were treated with 25 μM of compounds 5a-5s and 6a-6i for 48h and 72 h. […] In contrast, no compounds managed to reduce H1299 cell viability to less than 50%, yet compounds 5i, 5m, 6h and 6i achieved cell viability rates below 70%. […] It is worth noting that minimal effects on the cell viability of the normal cell line LO2 were observed when exposed to these compounds. Further, we determined the half-maximal inhibitory concentration (IC50) of selected compounds against H460 cells, the results of which were summarized in Table 3.

In series [2] the test system is H460 cells. Nature of the series: Western blot of protein expression, H460. To be noted: H460, 2, 4, 8 μM, 72 h. On the procedure:
Western blot was used to analyze protein expressions. Cells were cultured in 12-well plates and treated with different concentrations (0, 2, 4, 8 μM) of compounds for 72 h. Cell proteins were extracted using RIPA buffer with protease/phosphatase inhibitor cocktail (CST). 10%–15% sodium dodecyl sulfate polyacrylamide gel electrophoresis was used to separate proteins and nitrocellulose membranes (Millipore) was used to collected proteins. Antibodies used in western bolt were LC3 (3868s, CST), caspase 3 (9662s, CST), cyclin D (2922s, CST), cyclin E (20808s, CST), β-Catenin (9562s, CST), γH2AX (9718s, CST), PARP (46D11, CST), and β-actin (4967s, CST). Values were expressed as Mean ± SEM, p < 0.05 was considered statistically significant. Data were performed using Graph Prim 7.0.
Western blot analysis was performed to assess the protein expressions involved in cell growth and cell death processes. H460 and H1299 cells were treated with different concentrations of compound 5i, and whole cell proteins were collected for analysis. […] Autophagy has both tumor suppression and growth promotion effects in cancers, depending on the cellular context and cancer stage. On the one hand, autophagy inhibits cancer development via eliminating dysfunctional proteins and damaged mitochondria. On the other hand, autophagy can promote tumor growth by providing recycled metabolites to support cancer cell survival and growth ([Wang et al., 2023]). […] But in H1299 cells, compound 5i exerted its anticancer ability by suppressing cell division and proliferation.
(In general: A western blot detects proteins with antibodies after separation by electrophoresis.)

Molecules are shown by their SMILES. “Also recorded” adds a separate entry of the source.

On to `COc1c2n(cc(C(=O)Nc3cccc(-c4cn(-c5ccccc5OC(F)(F)F)nn4)c3)c1=O)CC1OCC(C)N1C2=O` (stereo not shown) [Compound 5i], for which the “apoptotic cells (early + late)” value in the series with H460 cells [1] is reported as “significant increase in apoptotic cells”. In addition, in the series with H1299 cells, the “number of cell clones” value is reported as “reduction in the number of cell clones”. Also, the Cell viability with LO2 cells turned out to be 99.80%. Moreover, in the series with H460 cells [2], the “Cyclin D expression” value is given as “no significant differences”, the “Cyclin E expression” value is reported as “no significant differences”, the LC3 expression result was “pronounced elevation; also recorded: significant increase” and the PARP expression entry is on record as “no significant differences”. In the series with H460 cells [2], the caspase3 expression entry is on record as “no significant differences”, the β-catenin expression result is given as “no significant differences” and the γ-H2AX expression entry was “no significant differences”.
